In patent US20260232640A1, “COMPOSITIONS AND METHODS FOR TREATING SPINAL MUSCULAR ATROPHY” (NMD Pharma A/S, priority 2023, published 2026):
“Also recorded” adds a separate entry of the source.

What was measured:
[1] = test system: SMA (delta-7 mouse) animals; experiment: RotaRod test (latency to fall) in SMA model; format: in vivo; conditions: 20 mg/kg IP; for latency to fall / running test, result in words: before vs 90 min after dosing
Protocol: (§1) The employed model of SMA is a genetic knock-in model of severe SMA (“delta-7 mouse”). This model was developed in The Ohio State University laboratories (Foust et al, 2010). In this study the mice were administered at post-natal day 2 via intracerebroventricular injection 40 μg of morpholino ASOs directed against ISS-N1 to increase full-length SMN protein production from SMN2 to allow the animal to live to about 90 days. Five animals aged 67 days were investigated in a study where 20 mg/kg CIC-1 inhibitor ((S)-2-(4-bromo-2-ethynylphenoxy)propionic acid) in phosphate buffered saline was administered intraperitoneally and subjected to a rotarod test battery 90 minutes after injection (single intervention) and CMAP recording 120 min after injection.
RotaRod (Harward apparatus, MA, USA) were used to explore the physical capabilities of the SMA mouse model in vivo and examined coordination ability of legs and endurance on a horizontal accelerating, rotating rod. The RotaRod test was designed to start at a low revolution rate of 5 rpm of the horizontal roll and accelerate gradually to 45 rpm over 300 seconds (maximal test time). Animals were acclimatized and trained for several weeks prior to intervention, to avoid training bias. […] This was performed prior to dosing, and then 90 min after IP dosing of 20 mg/kg of the CIC-1inhibitor.

[2] = test system: SMA (delta-7 mouse) animals; experiment: Compound Muscle Action Potentials (CMAP) decrement, repeated sciatic nerve stimulation (EMG); format: in vivo; conditions: for CMAP decrement, result in words: 10 to 50 Hz, before vs after treatment, significant from 20 to 50 Hz only; for CMAP Decrement % (10th/1st Stimulation): 20 mg/kg IP, 120 min after dosing
Protocol: as §1
Compound Muscle Action Potentials (CMAP) measurements were performed as previously described (Arnold et al, 2015). Briefly, the right sciatic nerve was stimulated with a pair of insulated 28-gauge monopolar needles (Teca, Oxford Instruments Medical, NY) placed in proximity to the sciatic nerve in the proximal hind limb. Recording electrodes consisted of a pair of fine ring wire electrodes (Alpine Biomed, Skovlunde, Denmark). The active recording electrode was placed distal to the knee joint over the proximal portion of the triceps surae muscle and the reference electrode over the metatarsal region of the foot. A disposable strip electrode (Carefusion, Middleton, WI) was placed on the contralateral hind limb to serve as the ground electrode. Data collection and analysis was performed using Cadwell Sierra Summit EMG unit (Cadwell laboratories, Kennewick, Washington, USA). Animals were stimulated in trains of 10 pulses of 50 μs at supramaximal voltage at 10, 20, 30, 40 and 50 Hz, with 10 seconds between stimulation trains.
This was performed prior to dosing, and then 120 min after IP dosing of 20 mg/kg of the CIC-1inhibitor. The relative amplitude from the 10th to the 1st stimulation is denoted as decrement, and a larger negative number designates a larger deficit/decrement, indicating a larger transmission failure from nerve to muscle.

[3] = test system: SMA (delta-7 mouse) animals; experiment: Tolerability after intraperitoneal injection in SMA model; format: in vivo; conditions: 20 mg/kg intraperitoneally, five animals
Protocol: as §1

[4] = Tablet dissolution (USP2 paddles, HPLC); format: physicochemical; conditions: immediate release tablets; USP2 paddles 75 RPM, 900 ml dissolution media pH 6.8, 37° C.; after a maximum of 60 minutes
Protocol: Tablet dissolution was determined as follows.
Dissolution Media pH 6.8 was prepared by dissolving 27.3 g Na2HPO4·2H2O and 4.9 g Citric Acid in 1 L Milli-Q water. The pH was measured and adjusted if necessary to pH 6.8.
900 mL of dissolution media pH 6.8 was accurately transferred into each dissolution vessel. The apparatus was assembled, and the dissolution media was heated to 37° C.±0.5° C. The T=0 point was extracted from each vessel prior to dropping the tablets into the dissolution vessels. One tablet was gently dropped into each dissolution vessel, and rotation of the paddle was immediately started. Samples were taken that the sample extraction timepoints and analysed using the HPLC method.

healthy volunteers = experiment: Phase I clinical trial Part A, tolerability/safety (adverse events); format: in vivo, human
[5] = Phase I clinical trial Part A, single dose pharmacokinetics in plasma; format: in vivo, human
Protocol: • Collect blood (3 mL recommended) onto wet ice (K2EDTA tubes) • Immediately cool blood on crushed wet ice for maximum of 30 minutes • Harvest plasma as quickly as possible using refrigerated centrifuge by centrifuging at 2000 g for 10 minutes at 4° C. • Keep plasma on wet ice and immediately stabilise with 1:1 (v/v) addition of Water: Orthophosphoric Acid (100:2 v/v) prepared using ≥85% orthophosphoric acid and deionised water (e.g. 750 μL plasma+750 μL stabiliser). • Mix sample thoroughly. • Keep the stabilised plasma on wet ice during subsequent steps. • Divide the stabilised plasma into 5×250 μL aliquots in plastic cryotubes. • Store aliquots at nominal −70° C./−80° C. promptly.
• 1. Thaw frozen calibration standards, QC samples, blank matrix and study samples on wet ice. • 2. Vortex-mix all samples thoroughly. • 3. On wet ice aliquot 150 μL of calibration standards, QC samples, study samples, and blanks into a 2 mL 96-well plate. For the reagent blank add the same volume of Water. • 4. On wet ice add 25 μL of Methanol:Water (50:50) to wells containing blanks and the same volume of ISTD intermediate solution to all other wells. • 5. On wet ice add 125 μL of Water to each well. […] Condition SPE plate with 250 μL of Water. • 9. Load 250 μL of the sample onto the SPE plate (aspirate from the rim of the cone to avoid any debris collected at the bottom of the well). […]

With C#Cc1cc(Br)ccc1O[C@@H](C)C(=O)O [CIC-1 inhibitor, (S)-2-(4-bromo-2-ethynylphenoxy)propionic acid] the “Time for remaining on rotor rod” value ([1]; 90 min after dosing, delta-7 mice aged 67 days, pre-treatment 62.2 ± 40.2) was 81 ± 63.2 s, the “latency to fall / running test, result in words” value [1] was “All animals were able to stay on the rotating rod longer after treatment; also recorded: performed better in the running test” and the “latency to fall / running test, result in words” value ([1]; listed as CIC-1inhibitor) was “All animals were able to stay on the rotating rod longer after treatment”. For the same compound, the “CMAP decrement, result in words” value [2] was “only minimal decrement visible; also recorded: less pronounced in all animals at all frequencies; also recorded: reduced decrement in EMG (RNS) at all tested frequencies”, the “CMAP decrement, result in words” value ([2]; listed as CIC-1inhibitor) was “less pronounced in all animals at all frequencies” and the improvement in decrement ([2]; at 50 Hz, mouse model of SMA) was 75%. For the same compound, the “CMAP Decrement % (10th/1st Stimulation)” value ([2]; stimulation frequency 10 Hz) was −7.0 ± 5.4%, the “CMAP Decrement % (10th/1st Stimulation)” value ([2]; stimulation frequency 20 Hz) was −8.1 ± 5.1% and the “CMAP Decrement % (10th/1st Stimulation)” value ([2]; stimulation frequency 30 Hz) was −8.4 ± 6.0%. For the same compound, the “CMAP Decrement % (10th/1st Stimulation)” value ([2]; stimulation frequency 40 Hz) was −8.9 ± 4.9%, the “CMAP Decrement % (10th/1st Stimulation)” value ([2]; stimulation frequency 50 Hz) was −7.7 ± 6.5% and the “adverse reactions to the compound injection” value [3] was “did not exhibit any adverse reactions to the compound injection, nor any signs of muscle stiffness”.
In the case of C[C@H](Oc1ccc(Br)cc1-c1ccon1)C(=O)O [NMD670, (2S)-2-[4-bromo-2-(1,2-oxazol-3-yl)phenoxy]propanoic acid], the “NMD670 released from the tablets” value [4] is reported as “Not less than 80%”, the “adverse event that stopped dose escalation” value (healthy volunteers; 1600 mg, dose level 7, spontaneously and fully resolved within hours) is reported as “myotonia of moderate intensity observed in one subject” and the subject discontinuations (healthy volunteers; Part A) is reported as “no subject discontinuations”. For the same compound, the “total number of AEs reported” value (healthy volunteers; Part A, 35 healthy subjects, single doses) was 70, the “intensity of AEs” value (healthy volunteers; except one AE of myotonia (1600 mg) and tooth extraction (unrelated, 50 mg), moderate) was “Most AEs were mild” and the “dose-related AE” value (healthy volunteers; highest dose levels tested (1200 mg and 1600 mg), single dose) was “transient myotonia”. The “number of AEs at least possibly drug related” value (healthy volunteers; of 70 AEs, Part A) was 47, the “share of AEs at least possibly drug related” value (healthy volunteers; of 70 AEs, Part A) was 67% and the “serious or severe adverse effects” value (healthy volunteers; single doses 50 to 1600 mg, 35 healthy subjects) was “No serious or severe adverse effects were reported”. For the same compound, the half-life ([5]; plasma, oral, human, stated in rationale for washout period) was roughly 4 h and the “T1/2 (mean ± SD, hr)” value ([5]; single oral dose 100 mg, healthy male subjects) was 5.07 ± 0.63 h.
